Experimental data reported in PubChem BioAssay (NCI).
Several values for one entry are separate records, joined by “and”; a condition that tells them apart may be missing. Equal values may be shown once.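 Results reflect a 48-hour exposure of cells in 96-well plates to compound at five concentrations. GI50: concentration for 50% inhibition of growth. The concentration for full growth arrest is given as TGI.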

What was measured:
Experiment in all cases: inhibition of tumour cell growth, NCI panel, 48 h
[1] = system: TK-10 renal
[2] = system: HCT-15 colon
[3] = system: KM12 colon
[4] = system: NCI/ADR-RES ovarian
[5] = system: DU-145 prostate
[6] = system: M14 melanoma
[7] = system: OVCAR-3 ovarian
[8] = system: CCRF-CEM leukemia
[9] = system: OVCAR-8 ovarian
[10] = system: MALME-3M melanoma

| SMILES | TGI [1] | TGI [2] | TGI [3] | TGI [4] | TGI [5] | TGI [6] | TGI [7] | TGI [8] | TGI [9] | TGI [10] | GI50 [1] | GI50 [2] | GI50 [3] | GI50 [4] | GI50 [5] | GI50 [6] | GI50 [7] | GI50 [8] | GI50 [9] | GI50 [10] |
| --- | --- | --- | --- | --- | --- | --- | --- | --- | --- | --- | --- | --- | --- | --- | --- | --- | --- | --- | --- | --- |
| CCCCCCCCCCCCCCCCSS(C)(=O)=O | 52.9 µM | 39.2 µM | > 100 µM | 7.05 µM | > 100 µM | 25.2 µM | 31.2 µM | 18.4 µM | 58.7 µM | 24.9 µM |  |  |  |  |  |  |  |  |  |  |
| COc1cc(/C=C/C(=O)c2ccc(F)cc2)ccc1OCCCCOc1cc2c(cc1OC)C(=O)N1CCCC1C=N2 (configuration not stated) | 23.2 µM | > 28.2 µM | 7.71 µM | > 26.4 µM | 5.46 µM | 4.08 µM | 2 µM | 1.88 µM | > 20.2 µM | 18.3 µM | 1.7 µM | 1070 nM | 762 nM | 0.936 µM | 994 nM | 2110 nM | 0.808 µM | 285 nM | 1550 nM | 0.835 µM |
| OCCNC(=S)Nc1ccc(-c2nc(N3C[C@H]4CC[C@@H](C3)O4)c3cccn3n2)cc1 | 0.399 µM | 14.4 µM | 12.6 µM | 2.16 µM | 24.2 µM | 5.93 µM | 4.39 µM | > 40.6 µM | 3.16 µM | 0.055 µM | 0.0269 µM | 90.6 nM | 98.7 nM | 0.172 µM | 98.7 nM | 65.4 nM | 0.0664 µM | 153 nM | 173 nM | < 0.01 µM |
| O=C(CC(O)c1cccnc1)CC(O)c1cccnc1 (configuration not stated) | > 100 µM | 29.6 µM | 26.7 µM | > 66.1 µM | > 89.7 µM | 27.8 µM | 28.1 µM | 20.9 µM | 35.7 µM | 39.9 µM |  |  |  |  |  |  |  |  |  |  |
| C[C@@]1([C@H](OC(=O)c2cccc3ccccc23)C(N)=O)CO1 | 14.8 µM | 10.7 µM | 10.8 µM | 4.8 µM | 5.64 µM | 5.31 µM | > 100 µM | > 100 µM | 22.7 µM | 11.2 µM | 3.6 µM | 1720 nM | 2090 nM | 0.54 µM | 1610 nM | 1360 nM | 21.6 µM | 1100 nM | 594 nM | 3.18 µM |
| CN(Cc1ccccc1)c1ncnc2ccc(Br)cc12 | 19.8 µM | 32 µM | 25.5 µM | 33.3 µM | 28.7 µM | 25.7 µM | 20.8 µM | 38.7 µM | 95.5 µM | 23.2 µM | 5.68 µM | 14100 nM | 11900 nM | 8.94 µM | 14600 nM | 12900 nM | 7.45 µM | 13600 nM | 26100 nM | 10.9 µM |
| Cc1ccccc1NC(=O)N/C(N)=N/c1nc(C)c(C)s1 | > 100 µM | > 100 µM | > 100 µM | 15.8 µM | > 100 µM | > 100 µM | 13.5 µM | > 100 µM | > 79.6 µM | > 100 µM |  | 64.7 nM | 206 nM | 0.089 µM | 481 nM | 121 nM | 0.17 µM | 243 nM | 512 nM | 3.54 µM |
| O=C1c2cccc3c([N+](=O)[O-])ccc(c23)C(=O)N1CCCCl | > 10 µM | > 10 µM | > 10 µM | > 10 µM | > 10 µM | > 10 µM | 4.72 µM | 3.28 µM | > 10 µM | > 10 µM | > 10 µM | 5010 nM | 6110 nM | 8.42 µM | 4560 nM | 5850 nM | 2.2 µM | 489 nM | 3860 nM | 9.77 µM |
| COc1ccc(Nc2[nH]n(C3=Nc4ccccc4Sc4ccccc43)c(=O)c2C#N)cc1 | 41 µM | 34.1 µM | 11.3 µM | 6.64 µM | 61.5 µM | 9.64 µM | 8.64 µM | > 100 µM | > 100 µM | > 100 µM | 3.81 µM | 1870 nM | 1640 nM | 1.43 µM | 2830 nM | 2490 nM | 1.78 µM | 1190 nM | 2010 nM | 2.67 µM |
| O=C(NCCN1CCOCC1)Nc1nc2ccc(Sc3nnc4ccc(-c5ccc(F)cc5)nn34)cc2s1 | > 100 µM | > 100 µM | > 100 µM | > 100 µM | > 100 µM | > 38.8 µM | > 100 µM | > 100 µM | > 100 µM | > 21.1 µM | > 100 µM | > 26700 nM | 571 nM | > 100 µM | > 100000 nM |  | > 100 µM |  | > 100000 nM | 3.12 µM |
| CC(C)C[C@H](NC(=O)[C@H](Cc1ccccc1)NC(=O)c1cnccn1)B(O)O | < 0.0693 µM and 0.0129 µM |  | 0.0367 µM and 0.00812 µM |  |  | < 0.0184 µM and 0.0321 µM | < 0.0124 µM and 0.00238 µM |  |  | < 0.0454 µM and 0.0194 µM | 0.00164 µM | 2.37 nM | 2.29 nM | 0.0613 µM | 3.11 nM | 3.22 nM | 0.00104 µM | < 10 nM and 1.04 nM | 17.5 nM and 4.27 nM | 0.00116 µM |
| O=C(/C=C/c1ccccc1)Nc1ncc(Cc2ccccc2)s1 | > 46.4 µM | > 100 µM | 13 µM | 5.5 µM | > 100 µM | 3.03 µM | 1.44 µM | > 80.8 µM | > 40.9 µM | > 100 µM | 1.34 µM | 66 nM | 149 nM | 0.178 µM | 396 nM | 114 nM | 0.258 µM | 194 nM | 488 nM | 1.08 µM |
| CS(=O)(=O)OCCCCOS(C)(=O)=O | > 464 µM | 236 µM and > 1000 µM | > 1000 µM | 250 µM and > 1000 µM | 250 µM and > 1000 µM | 250 µM and > 1000 µM | > 1000 µM | 250 µM and > 877 µM | 250 µM and > 1000 µM | 250 µM and > 1000 µM | > 464 µM | > 903000 nM | > 872000 nM | > 1000 µM | 774000 nM | 765000 nM | > 1000 µM | 214000 nM | > 873000 nM | > 1000 µM |
